Data: US10440955B2, “Methods comprising a biocidal polyamine” (Curza Global, LLC, priority 2013, dated 2019)
Converted amounts (≈) assume the structure as drawn.

What was measured:
P. aeruginosa = test: MIC, 96-well CAMHB, 10^5 to 10^2 CFU/mL in 24 hours; assay type: cell-based, Pseudomonas aeruginosa; conditions: Pseudomonas aeruginosa; Table 3A c2; read-out: MICs (μg/mL): P. aeruginosa
Procedure, shortened: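 Broth microdilution in CAMHB with about 5×10^5 CFU/mL inoculum, incubated 24 h at 37 °C with graded polyamine compound concentrations. Surviving CFU/mL determined by plating each well on TSA for 24 h at 37 °C; n=8 per concentration.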

P. aeruginosa biofilms [1] = test: MBEC, MBEC Inoculation Tray (Innovotech), to 10^2 CFU/peg in 24 hours; assay type: cell-based; conditions: Pseudomonas aeruginosa; Table 3A c5; group head missing, probably MBEC; read-out: MICs (μg/mL): P. aeruginosa (second P. aeruginosa)
Excerpt: To determine the MBEC of each polyamine compound, the MBEC Inoculation Tray by Innovotech, formerly known as the Calgary biofilm device, was used. Within this device, biofilms grow on the surface of polystyrene pegs, 96 of which are attached to a lid. These pegs are inserted into a flat bottom 96-well plate. In this instance, the MBEC of a molecule was defined as the concentration of compound (in μg/mL) required to reduce 10^5 or 10^6 CFU/peg (biofilm levels varied by isolate) to 10^2 CFU/peg in a 24-hour period.
Following the manufacturer's guidelines, biofilms were grown on the surface of each peg by first making a 0.5 McFarland of each isolate. The 0.5 McFarland was diluted 1:100 in CAMHB. Into each well of a flat bottom 96-well plate, 150 μL of broth were pipetted. The plate was shaken at 100 rpm for 24 hours (P. aeruginosa and A. baumannii) or 48 hours (MRSA). The pegs were then placed into a separate flat bottom 96-well plate for 10 seconds with 200 μL of phosphate buffered saline (PBS) in each well to remove nonadherent cells. The lid was then placed into a 96-well plate that contained varying concentrations of antimicrobial with 200 μL per well. The plate was incubated for 24 hours at 37° C. after which time 100 μL of broth were plated on TSA. TSA plates were incubated 24 hours at 37° C. and the number of CFU counted to calculate the CFU/peg. […]

P. aeruginosa biofilms [2] = test: EBEC, high number biofilms on PEEK membranes, 10^9 to 10^2 CFU/PEEK membrane in 24 hours; assay type: cell-based; conditions: Pseudomonas aeruginosa; Table 3B c3; group head missing; read-out: MICs (μg/mL) II: P. aeruginosa
Procedure: In addition to determining the MIC and the MBEC of polyamine compounds against planktonic bacteria and low number biofilms, our group wanted to determine the efficacy of polyamine compounds against high number biofilms. To do so, biofilms were grown on the surface of polyetheretherketone (PEEK) membranes using a membrane biofilm reactor. This reactor is similar to the CDC biofilm reactor, but rather than growing biofilms on coupon surfaces, the reactor was modified to hold PEEK membranes. In short, to grow biofilms within this system, 500 mL of brain heart infusion (BHI) broth were inoculated with 1 mL of a 0.5 McFarland. The reactor was placed on a hot plate set at 34° C. and the bacteria were grown under batch conditions for 24 hours. Following this protocol, biofilms typically grow to 10^9 CFU/PEEK membrane. […] A solution of 10% BHI was then flowed through the reactor at a rate of 6.94 mL/min for an additional 24 hours. PEEK membranes were then removed and placed into 2 mL of CAMHB that contained a desired concentration of polyamine compound or antibiotic. The EBEC was defined as the concentration of antimicrobial required to reduce a biofilm from approximately 10^9 CFU/PEEK membrane to approximately 10^2 CFU/PEEK membrane in a 24-hour period.

biofilm formation = conditions: study by Losick and co-workers (Kolodkin-Gal et al., Cell 149 (2012)); cited from earlier work
L-929 cells (ATCC CCL-1) = test: Minimal Essential Media (MEM) Elution cytotoxicity test; assay type: cell-based; conditions: Table 9A
Procedure, shortened: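 L-929 cells (ATCC CCL-1) were seeded in multiwell plates and grown to roughly 80% confluence. Test article dilutions (1:2, 1:4, 1:8, 1:16) and control extracts were applied in triplicate and incubated 48±3 hours at 37±1° C. in 5±1% CO2. Wells were scored microscopically for morphological cytotoxicity on a 0–4 scale and averaged; Pass required grade not greater than 2 per USP <87>.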

biofilms of MRSA = conditions: understanding of the inventors; no own test described; cited from earlier work

For `NC[C@H]1O[C@H](O[C@H]2[C@H](O)[C@@H](O[C@H]3O[C@H](CO)[C@@H](O)[C@H](N)[C@H]3O)[C@H](N)C[C@@H]2N)[C@H](N)C[C@@H]1O` [Tobramycin, tobramycin, reference compound], the MIC (P. aeruginosa) was 2 µg/mL (≈ 4.28 µM), the MIC (P. aeruginosa biofilms [1]) was 100 µg/mL (≈ 214 µM) and the MIC (P. aeruginosa biofilms [2]) was 2000 µg/mL (≈ 4280 µM).

In the case of `NCCCNCCCN` [norspermidine, N-(3-aminopropyl)propane-1,3-diamine], the “concentration inhibiting biofilm formation” value (biofilm formation) is given as 25 µM.

In the case of `NCCCCNCCCN` [spermidine], the “concentration at which active (biofilm formation)” value (biofilm formation) is listed as ~1 mM.

With `N=C(NCCCCCCNC(=N)NC(=N)Nc1ccc(Cl)cc1)NC(=N)Nc1ccc(Cl)cc1.O=C(O)[C@H](O)[C@@H](O)[C@H](O)[C@H](O)CO.O=C(O)[C@H](O)[C@@H](O)[C@H](O)[C@H](O)CO` [chlorhexidine gluconate, reference compound] the “Results Pass/Fail” value (L-929 cells (ATCC CCL-1); 3.125 μg/mL) was “Pass (receives a passing score (Pass) if the reactivity grade is not greater than grade 2 or a mild reactivity)”, the “Results Pass/Fail” value (L-929 cells (ATCC CCL-1); 6.25 μg/mL) was “Pass (receives a passing score (Pass) if the reactivity grade is not greater than grade 2 or a mild reactivity)” and the “Results Pass/Fail” value (L-929 cells (ATCC CCL-1); 12.5 μg/mL) was “Pass (receives a passing score (Pass) if the reactivity grade is not greater than grade 2 or a mild reactivity)”. The “Results Pass/Fail” value (L-929 cells (ATCC CCL-1); 25 μg/mL) was “Fail (a numerical grade greater than 2 is considered a cytotoxic effect, or a failing score (Fail))”, the “Results Pass/Fail” value (L-929 cells (ATCC CCL-1); 1.563 (unit not given)) was “Pass (receives a passing score (Pass) if the reactivity grade is not greater than grade 2 or a mild reactivity)” and the “biofilm dispersal effect (comparison)” value (biofilms of MRSA) was “not seen”.
